In general, Ki refers to a measure of affinity in units of concentration, obtained from inhibition or displacement. Lower therefore signals higher affinity. In general, Kd refers to the equilibrium constant for the complex coming apart.

One assay concerns the target rat TAAR1 (Rattus norvegicus (Rat), UniProt Q923Y9). The experiment in a line: Radioligand binding assay on rat TAAR1. The conditions noted are these: for Ki: rat TAAR1, membranes of stably transfected HEK-293 cells, second value of cell mouse/rat. The method, then: (§1) Construction of TAAR Expression Plasmids and Stably Transfected Cell Lines
(§2) For the construction of expression plasmids the coding sequences of human, rat and mouse TAAR 1 were amplified from genomic DNA essentially as described by Lindemann et al.. The Expand High Fidelity PCR System (Roche Diagnostics) was used with 1.5 mM Mg^2+ and purified PCR products were cloned into pCR2.1-TOPO cloning vector (Invitrogen) following the instructions of the manufacturer. PCR products were subcloned into the pIRESneo2 vector (BD Clontech, Palo Alto, Calif.), and expression vectors were sequence verified before introduction in cell lines.
(§3) HEK293 cells (ATCC # CRL-1573) were cultured essentially as described by Lindemann et al. (2005). For the generation of stably transfected cell lines HEK293 cells were transfected with the pIRESneo2 expression plasmids containing the TAAR coding sequences (described above) with Lipofectamine 2000 (Invitrogen) according to the instructions of the manufacturer, and 24 hrs post transfection the culture medium was supplemented with 1 mg/ml G418 (Sigma, Buchs, Switzerland). After a culture period of about 10 d clones were isolated, expanded and tested for responsiveness to trace amines (all compounds purchased from Sigma) with the cAMP Biotrak Enzyme immunoassay (EIA) System (Amersham) following the non-acetylation EIA procedure provided by the manufacturer.
Radioligand Binding Assay on Rat TAAR1
(§4) Membrane Preparation and Radioligand Binding.
HEK-293 cells stably expressing rat TAAR1 were maintained at 37° C. and 5% CO2 in DMEM high glucose medium, containing fetal calf serum (10%, heat inactivated for 30 min at 56° C.), penicillin/streptomycin (1%), and 375 μg/ml geneticin (Gibco). Cells were released from culture flasks using trypsin/EDTA, harvested, washed twice with ice-cold PBS (without Ca^2+ and Mg^2+), pelleted at 1'000 rpm for 5 min at 4° C., frozen and stored at −80° C. Frozen pellets were suspended in 20 ml HEPES-NaOH (20 mM, pH 7.4) containing 10 mM EDTA and homogenized with a Polytron (PT 6000, Kinematica) at 14'000 rpm for 20 s. The homogenate was centrifuged at 48'000×g for 30 min at 4° C. Subsequently, the supernatant was removed and discarded, and the pellet resuspended in 20 ml HEPES-NaOH (20 mM, pH 7.4) containing 0.1 mM EDTA using the Polytron (20 s at 14'000 rpm). This procedure was repeated and the final pellet resuspended in HEPES-NaOH containing 0.1 mM EDTA and homogenized using the Polytron. Typically, aliquots of 2 ml membrane portions were stored at −80° C. With each new membrane batch the dissociation constant (Kd) was determined via a saturation curve. […] Nonspecific binding was defined as the amount of ^3[H]-(S)-4-[(ethyl-phenyl-amino)-methyl]-4,5-dihydro-oxazol-2-ylamine bound in the presence of 10 μM unlabeled ligand. All compounds were tested at a broad range of concentrations (10 pM to 10 μM) in duplicates. […] The 96 deep well plates were incubated for 1 hr at 4° C. Incubations were terminated by rapid filtration through Unifilter-96 plates (Packard Instrument Company) and glass filters GF/C (Perkin Elmer) presoaked for 1 hr in polyethylenimine (0.3%) and washed 3 times with 1 ml of cold binding buffer. After addition of 45 μl of Microscint 40 (PerkinElmer) the Unifilter-96 plate was sealed and after 1 hr the radioactivity counted using a TopCount Microplate Scintillation Counter (Packard Instrument Company).

A further assay concerns the target mouse TAAR1 (Mus musculus (Mouse), UniProt Q923Y8). Briefly: Radioligand binding assay on mouse TAAR1. As to conditions: for Ki: mouse TAAR1, membranes of stably transfected HEK-293 cells, first value of cell mouse/rat. The method, then: as §1, §2, §3
Radioligand Binding Assay on Mouse TAAR1
as §4
HEK-293 cells stably expressing mouse TAAR1 were maintained at 37° C. and 5% CO2 in DMEM high glucose medium, containing fetal calf serum (10%, heat inactivated for 30 min at 56° C.), penicillin/streptomycin (1%), and 375 μg/ml geneticin (Gibco). Cells were released from culture flasks using trypsin/EDTA, harvested, washed twice with ice-cold PBS (without Ca^2+ and Mg^2+), pelleted at 1'000 rpm for 5 min at 4° C., frozen and stored at −80° C. Frozen pellets were suspended in 20 ml HEPES-NaOH (20 mM, pH 7.4) containing 10 mM EDTA and homogenized with a Polytron (PT 6000, Kinematica) at 14'000 rpm for 20 s. The homogenate was centrifuged at 48'000×g for 30 min at 4° C. Subsequently, the supernatant was removed and discarded, and the pellet resuspended in 20 ml HEPES-NaOH (20 mM, pH 7.4) containing 0.1 mM EDTA using the Polytron (20 s at 14'000 rpm). This procedure was repeated and the final pellet resuspended in HEPES-NaOH containing 0.1 mM EDTA and homogenized using the Polytron. Typically, aliquots of 2 ml membrane portions were stored at −80° C. With each new membrane batch the dissociation constant (Kd) was determined via a saturation curve. The TAAR1 radioligand ^3[H]-(S)-4-[(ethyl-phenyl-amino)-methyl]-4,5-dihydro-oxazol-2-ylamine (described in WO 2008/098857) was used at a concentration equal to the calculated Kd value, that was usually around 0.7 nM, resulting in the binding of approximately 0.5% of the radioligand and a specific binding representing approximately 70% of the total binding. Nonspecific binding was defined as the amount of ^3[H]-(S)-4-[(ethyl-phenyl-amino)-methyl]-4,5-dihydro-oxazol-2-ylamine bound in the presence of 10 μM unlabeled ligand. All compounds were tested at a broad range of concentrations ([…]) in duplicates. […] The 96 deep well plates were incubated for 1 hr at 4° C. Incubations were terminated by rapid filtration through Unifilter-96 plates (Packard Instrument Company) and glass filters GF/C (Perkin Elmer) presoaked for 1 hr in polyethylenimine (0.3%) and washed 3 times with 1 ml of cold binding buffer. After addition of 45 μl of Microscint 40 (PerkinElmer) the Unifilter-96 plate was sealed and after 1 hr the radioactivity counted using a TopCount Microplate Scintillation Counter (Packard Instrument Company).

mouse TAAR1, sequence (Q923Y8 whole entry): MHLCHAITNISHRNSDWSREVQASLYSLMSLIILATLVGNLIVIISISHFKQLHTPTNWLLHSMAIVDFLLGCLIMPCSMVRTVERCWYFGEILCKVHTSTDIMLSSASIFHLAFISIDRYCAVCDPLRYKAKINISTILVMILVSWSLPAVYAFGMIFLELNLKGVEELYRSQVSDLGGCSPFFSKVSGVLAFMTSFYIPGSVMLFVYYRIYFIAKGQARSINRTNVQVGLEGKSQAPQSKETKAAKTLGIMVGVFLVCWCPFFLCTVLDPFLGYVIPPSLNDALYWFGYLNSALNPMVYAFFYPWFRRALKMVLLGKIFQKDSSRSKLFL
rat TAAR1, sequence (Q923Y9 whole entry): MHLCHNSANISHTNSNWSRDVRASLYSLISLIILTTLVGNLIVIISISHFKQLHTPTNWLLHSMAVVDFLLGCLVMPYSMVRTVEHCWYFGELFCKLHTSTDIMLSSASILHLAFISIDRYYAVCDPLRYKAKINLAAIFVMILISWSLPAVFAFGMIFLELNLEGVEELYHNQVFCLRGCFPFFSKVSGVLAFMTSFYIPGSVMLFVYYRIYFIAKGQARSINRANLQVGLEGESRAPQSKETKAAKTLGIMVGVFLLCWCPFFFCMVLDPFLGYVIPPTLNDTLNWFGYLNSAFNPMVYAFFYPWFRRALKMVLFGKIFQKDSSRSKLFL

On to `CCc1cnc(Nc2ccc(CC[C@H]3COC(N)=N3)cc2)nc1` [Example 37, {4-[2-((S)-2-Amino-4,5-dihydro-oxazol-4-yl)-ethyl]-phenyl}-(5-ethyl-pyrimidin-2-yl)-amine], for which the Ki amounted to 0.0012 µM on rat TAAR1 and 0.0013 µM at mouse TAAR1.
In the same order, the values of `CC(=O)c1cnc(Nc2ccc(CC[C@H]3COC(N)=N3)cc2)nc1` [Example 47, 1-(2-{4-[2-((S)-2-Amino-4,5-dihydro-oxazol-4-yl)-ethyl]phenylamino}-pyrimidin-5-yl)-ethanone] are 0.0024 µM and 0.0192 µM.
As to `Cc1cc(CC[C@H]2COC(N)=N2)ccc1Nc1ncc(Cl)cn1` [Example 72, {4-[2-((S)-2-Amino-4,5-dihydro-oxazol-4-yl)-ethyl]-2-methyl-phenyl}-(5-chloro-pyrimidin-2-yl)-amine], the figures for the Ki at rat TAAR1 and on mouse TAAR1 were 0.0007 µM and 0.0019 µM, respectively.
Turning to `NC1=N[C@@H](CCc2ccc(Nc3ncc(Br)cn3)cc2)CO1` [Example 51, {4-[2-((S)-2-Amino-4,5-dihydro-oxazol-4-yl)-ethyl]-phenyl}-(5-bromo-pyrimidin-2-yl)-amine], the Ki at rat TAAR1 was found to be 0.0004 µM; at mouse TAAR1, 0.0006 µM.
In the same order, the values of `NC1=N[C@@H](CCc2ccc(Nc3cccc4cccnc34)cc2)CO1` [Example 1, (S)-4-(4-(Quinolin-8-ylamino)phenethyl)-4,5-dihydrooxazol-2-amine] are 0.0006 µM and 0.0035 µM.
In the same order, the values of `CCC(=O)c1cnc(Nc2ccc(CC[C@H]3COC(N)=N3)cc2)nc1` [Example 53, (S)-1-(2-(4-(2-(2-Amino-4,5-dihydrooxazol-4-yl)ethyl)phenylamino)pyrimidin-5-yl)propan-1-one] are 0.0265 µM and 0.113 µM.
In the same order, the values of `Cc1nccc(Nc2ccc(CC[C@H]3COC(N)=N3)cc2)n1` [Example 34, {4-[2-((S)-2-Amino-4,5-dihydro-oxazol-4-yl)-ethyl]-phenyl}-(2-methyl-pyrimidin-4-yl)-amine] are 0.0026 µM and 0.0387 µM.
As to `NC1=N[C@@H](CCc2ccc(Nc3cc(C(F)(F)F)ccn3)cc2)CO1` [Example 23, {4-[2-((S)-2-Amino-4,5-dihydro-oxazol-4-yl)-ethyl]-phenyl}-(4-trifluoromethyl-pyridin-2-yl)-amine], the Ki on rat TAAR1 came to 0.0002 µM; on mouse TAAR1, 0.0003 µM.
`NC1=N[C@@H](CCc2ccc(NC(c3ccc(C(F)(F)F)cc3)C(F)(F)F)cc2)CO1` (stereo partly drawn) [Example 67, (4S)-4-(4-(2,2,2-Trifluoro-1-(4-(trifluoromethyl)phenyl)ethylamino)phenethyl)-4,5-dihydrooxazol-2-amine]: the figures for the Ki on rat TAAR1 and on mouse TAAR1 were 0.0084 µM and 0.0412 µM, respectively.
Take `CCN(C[C@H]1COC(N)=N1)c1ccccc1` [^3[H]-(S)-4-[(ethyl-phenyl-amino)-methyl]-4,5-dihydro-oxazol-2-ylamine, reference compound]: the Kd at rat TAAR1 (rat TAAR1 membranes, saturation curve, read-out: dissociation constant (Kd) of the radioligand) was about 2.3 nM; on mouse TAAR1 (mouse TAAR1 membranes, saturation curve, read-out: dissociation constant (Kd) of the radioligand) it was about 0.7 nM.
Consider `NC1=N[C@@H](CCc2ccc(Nc3ccc(F)cn3)cc2)CO1` [Example 3, (S)-4-(4-(5-Fluoropyridin-2-ylamino)phenethyl)-4,5-dihydrooxazol-2-amine], for which the Ki on rat TAAR1 turned out to be 0.0002 µM; at mouse TAAR1, 0.0022 µM.
With `CC(C)c1cnc(Nc2ccc(CC[C@H]3COC(N)=N3)cc2)nc1` [Example 61, (S)-4-(4-(5-Isopropylpyrimidin-2-ylamino)phenethyl)-4,5-dihydrooxazol-2-amine], the Ki on rat TAAR1 turned out to be 0.0002 µM; at mouse TAAR1 it was 0.0007 µM.
In the same order, the values of `NC1=N[C@@H](CCc2ccc(Nc3nccnc3Cl)cc2)CO1` [Example 41, {4-[2-((S)-2-Amino-4,5-dihydro-oxazol-4-yl)-ethyl]-phenyl}-(3-chloro-pyrazin-2-yl)-amine] are 0.0031 µM and 0.0593 µM.
For the compound `Cc1ccc(Nc2ccc(CC[C@H]3COC(N)=N3)cc2)nc1` [Example 29, {4-[2-((8)-2-Amino-4,5-dihydro-oxazol-4-yl)-ethyl]-phenyl}-(5-methyl-pyridin-2-yl)-amine], the figures for the Ki on rat TAAR1 and on mouse TAAR1 were 0.0035 µM and 0.0306 µM, respectively.
Regarding `NC1=N[C@@H](CCc2ccc(Nc3ccc(Cl)c(Cl)c3)cc2)CO1` [Example 19, (S)-4-(4-(3,4-Dichlorophenylamino)phenethyl)-4,5-dihydrooxazol-2-amine], the Ki on rat TAAR1 was determined as 0.0001 µM; on mouse TAAR1, 0.0002 µM.
In the same order, the values of `NC1=N[C@@H](CCc2ccc(Nc3ncc(C(F)(F)F)cn3)cc2)CO1` [Example 56, (S)-4-(4-(5-(Trifluoromethyl)pyrimidin-2-ylamino)phenethyl)-4,5-dihydrooxazol-2-amine] are 0.0039 µM and 0.0019 µM.
In the same order, the values of `CS(=O)(=O)c1cnc(Nc2ccc(CC[C@H]3COC(N)=N3)cc2)nc1` [Example 74, (S)-4-(4-(5-(Methylsulfonyl)pyrimidin-2-ylamino)phenethyl)-4,5-dihydrooxazol-2-amine] are 0.0146 µM and 0.046 µM.
In the case of `CCOc1cnc(Nc2ccc(CC[C@H]3COC(N)=N3)cc2)nc1` [Example 55, {4-[2-((S)-2-Amino-4,5-dihydro-oxazol-4-yl)-ethyl]-phenyl}-(5-ethoxy-pyrimidin-2-yl)-amine], the Ki at rat TAAR1 came to 0.0083 µM; at mouse TAAR1, 0.005 µM.
In the same order, the values of `NC1=N[C@@H](CCc2ccc(Nc3cccc(Cl)n3)cc2)CO1` [Example 28, {4-[2-((8)-2-Amino-4,5-dihydro-oxazol-4-yl)-ethyl]-phenyl}-(6-chloro-pyridin-2-yl)-amine] are 0.0005 µM and 0.001 µM.
In the same order, the values of `NC1=N[C@@H](CCc2ccc(Nc3ccc(Cl)cc3)cc2)CO1` [Example 6, (S)-4-{2-[4-(4-Chloro-phenylamino)-phenyl]-ethyl}-4,5-dihydro-oxazol-2-ylamine] are 0.0001 µM and 0.0002 µM.
